Values after ≈ are worked out from the molar mass of the structure shown. Values belong to the molecule of their own block, whether it stands above or below them.
Key:
[1] = Blood, tumor and liver fructose after IP injection of fructose in B16 tumor bearing mice; type: in vivo
Procedure: Further this supports that HP fructose reaches the tumor and provides a platform for imaging.
In order to determine the effect of fructose addition into GLUT5-OV T cells in vivo, the assay is optimized for delivering fructose into the tumor microenvironment. Specifically, three methods are tested, including: (i) intraperitoneal (IP) and (ii) intravenous (IV) injections of fructose, and (iii) water bottle with high-fructose corn syrup (HFCS). IP and IV injections (4 g/kg) are conducted daily and 25% HFCS in water is provided for three weeks; twice a week during this time the fructose level in circulating blood is measured and an endpoint tumor fructose measurement is taken. A B16 melanoma mouse model is utilized. Briefly, B16 cells (2×10^5) are engrafted subcutaneously into C57BL/6 mice and assayed on Day 7 post-tumor-engraftment. In a second cohort of mice, with the same conditions, co-administration of the KHKi^53 used in Example 3 is performed to block the uptake of the liver and small intestine (the predominant sites of fructose uptake and subsequent phosphorylation by KHK). As shown in Example 1, a single IP injection of fructose was piloted and both the tumors and liver were extracted after 1 hr (FIG. 12). […] Given this PK data, this dose of KHKi is explored using multiple routes of delivery. Specially, a dose of 10 mg/kg was used and administered IP at the same time as the fructose delivery. Fructose concentration is measured in the circulating blood as well as the endpoint tumor with all 3 delivery methods (n=10 mice per group, total of 80 mice) utilizing a standard kit assay. See Goncalves et al. Science 363, 1345-1349 (2019). Taken together, these experiments provide the necessary data to determine which fructose delivery method is best for the remaining experiments.
Results, potential challenges and alternative solutions: In some embodiments, high dose injections of fructose allows for a transient but substantial increase in blood as well as tumor fructose levels (>2 mM). It was found by Applicant that with a single IP injection of fructose the blood concentration can be raised to >10 mM and tumor concentration can be raised to >2 mM. The dosing schedule relative to T-cell action is further optimized. It is possible that the fructose levels of tumors can not be further elevated in vivo due to the action of the liver and gluconeogenesis. […] This is readily in the range of detection for HP MRI. It is possible that HP lactate can not be detected in tumors from fructose due to the cellularity. At the minimum, however, HP F6P can be detected, which was previously detected in tumors that overexpress GLUT5; this informs on the degree of fructose metabolism into glycolysis. […]

[2] = Hyperpolarized lifetime and polarization of HP fructose probes; type: physicochemical
Description: FIG. 9A provides the mechanism for transport by GLUT5 and the first step of metabolism of fructose to fructofuranose-6-phosphate by hexokinase. FIG. 9B provides a T2-weighted image of a transgenic model of prostate cancer (TRAMP) mouse with tumor only on the right side of the prostate. Metabolic images of total hyperpolarized [2-^13C] fructose resonances (FIG. 9C) and the composite 0-fructofuranose-6-phosphate and β-fructofuranose (FIG. 9D) are shown overlaid on the T2 weighted image. Resonances corresponding to the β-fructopyranose and composite p-fructofuranose-6-phosphate and p-fructofuranose are shown in the corresponding spectral array (FIG. 9E). FIGS. 9A-9E adapted from Keshari et al. J Am Chem Soc. 2009 Dec. 9; 131(48):17591-6. […] An unassigned, spurious, low signal-to-noise resonance appears at 115 ppm. FIG. 9F provides a synthetic scheme for U-^2H-[2-^13C] fructose. The C2 is annotated by an C. FIG. 9G provides representative dynamic spectra of HP [2-^13C] fructose dissolved in D2O and HP U-^2H-[2-^13C] fructose dissolved in D20. Both solutions were approximately 30 mM and spectra acquired using 5° flip angle every 3 s.
Enhancement of hyperpolarized lifetimes using D2O solvation and application to HP fructose: In previous experiments, the necessary strategies and combined methods to develop not only novel probes for HP MRI but also bolus tracing experiments to confirm biochemistry in vivo. See Salamanca-Cardona et al. Cell Metab 26, 830-841 e833 (2017). While many molecular strategies have been developed for HP MRI, they generally suffer from short lifetimes (≤10 s) making flux through pathways of interest difficult to visualize in vivo. […] See Keshari et al. J Am Chem Soc 131, 17591-17596 (2009). In recent work, It was shown by the Applicant that utilization of rapid exchange between H2O and D2O can dramatically increase the lifetimes of the HP probes by greatly reducing dipolar relaxation. See Cho et al. J Magn Reson 295, 57-62 (2018). As such, a synthesis was developed for [2-^13C,U-^2H7] fructose at gram scale (FIG. 9F) as well as a preparation to hyperpolarize it. […]

[3] = PBS, pH 7.4; cited from earlier work
[4] = test system: red blood cell pyruvate kinase; conditions: over a broad range of PKLR genotypes; cited from earlier work
[5] = target: T1, KHK (Homo sapiens, UniProt P50053); assay: 13C NMR of [2-13C]F1P in HepG2 cell extract with KHKi treatment; type: cell-based; conditions: treatment at 4 hr in vitro
T1 construct: endogenous in cells; host or cells: HepG2 cells
T1 sequence (P50053 1-298): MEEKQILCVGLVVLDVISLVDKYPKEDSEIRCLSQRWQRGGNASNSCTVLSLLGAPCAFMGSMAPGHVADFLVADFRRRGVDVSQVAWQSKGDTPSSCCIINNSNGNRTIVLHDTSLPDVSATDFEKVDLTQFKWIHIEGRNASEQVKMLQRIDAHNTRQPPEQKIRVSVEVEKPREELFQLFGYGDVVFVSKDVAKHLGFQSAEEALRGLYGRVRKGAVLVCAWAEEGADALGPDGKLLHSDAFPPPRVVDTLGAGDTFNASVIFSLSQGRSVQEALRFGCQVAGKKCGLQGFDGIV
Description: FIGS. 11A-11C provide fructose converted to fructose-1-phosphate (F1P) and later to lactate in vivo measured in transformed hepatocytes (HepG2 cells) using [2-^13C] fructose. FIG. 11A provides ^13C NMR spectra of media containing [2-^13C] fructose exposed to HepG2 cells. FIG. 11B provides a quantification of fructose consumption by HepG2.
Translation of novel hyperpolarized probes into in vivo animal models represents a great technical advance in the exploration of the modulate metabolism induced by GLUT5-OV. Using the optimized probe formulation for HP fructose, the metabolic conversion of fructose is explored in vivo in the liver of wild type B6 mice, as previously shown. […] [2-^13C]F1P resonates downfield of the C2 pyranose resonance; in Example 1, this conversion was measured in transformed hepatocytes (HepG2 cells, FIG. 11) using [2-^13C] fructose. When further converted, C2 lactate is generated (resonating at 70 ppm) from fructose and this has been detected previously in vivo derived from HP glucose (Rodrigues et al. Nat Med 20, 93-97 (2014)) and pyruvate (Park et al. Magn Reson Med 75, 973-984 (2016)). All imaging studies are conducted under IACUC-approved protocol #13-12-019. Briefly, mice are imaged using a 3T Bruker MRI equipped with a dual tune ^1H/^13C volume coil. […] This is then extracted and labeled metabolites are measured by LC/MS and NMR. […]

[6] = Pharmacokinetic analysis of the KHKi in vivo; design: species or system mice; conditions: mouse
[7] = target: PKM2 (Homo sapiens, UniProt P14618); conditions: PKM2 activation; cited from earlier work
[8] = single IP injection of fructose

Sequence of PKM2 (P14618 whole entry): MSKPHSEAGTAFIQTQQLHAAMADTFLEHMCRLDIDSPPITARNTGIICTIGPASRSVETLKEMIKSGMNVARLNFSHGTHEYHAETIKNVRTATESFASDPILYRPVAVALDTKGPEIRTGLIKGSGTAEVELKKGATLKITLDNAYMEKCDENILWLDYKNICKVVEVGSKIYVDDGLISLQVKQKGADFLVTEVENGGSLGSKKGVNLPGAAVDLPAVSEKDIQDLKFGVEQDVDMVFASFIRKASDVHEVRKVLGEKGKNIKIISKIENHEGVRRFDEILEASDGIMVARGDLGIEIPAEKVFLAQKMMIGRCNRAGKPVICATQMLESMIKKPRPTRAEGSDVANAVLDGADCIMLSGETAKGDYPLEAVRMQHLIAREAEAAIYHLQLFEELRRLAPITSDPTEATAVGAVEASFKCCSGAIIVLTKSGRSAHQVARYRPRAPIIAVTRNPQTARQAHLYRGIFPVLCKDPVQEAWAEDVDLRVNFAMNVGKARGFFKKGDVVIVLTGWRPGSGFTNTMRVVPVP

Structure (SMILES): O=C(CO)[C@@H](O)[C@H](O)[C@H](O)CO [fructose]
blood concentration of fructose [1, 8]: > 10 mM
tumor concentration of fructose [1, 8]: > 2 mM

achieved polarization [2]: greater than 10%
hyperpolarized lifetime ([2]; D2O solvation): 1.5 min
lifetime relative to previously shown ([2]; versus HP [2-13C] fructose): 6 times
Structure (SMILES): [2H]C([2H])(O)[13C](=O)[C@@]([2H])(O)[C@]([2H])(O)[C@]([2H])(O)C([2H])([2H])O [[2-^13C,U-^2H7] fructose]

Structure (SMILES): Cn1c2cc([S+](C)[O-])sc2c2cnn(Cc3cccc(N)c3)c(=O)c21 (centres unmarked) [TEPP-46]
aqueous solubility [3]: 79.5 µM (≈ 29.6 µg/mL)

Structure (SMILES): O=C(c1ccc(NS(=O)(=O)c2cccc3cccnc23)cc1)N1CCN(CC2CC2)CC1 [AG 348]
effect on red blood cell pyruvate kinase [4]: increases enzymatic activity, protein stability, and ATP levels

change in F1P [5]: decrease in F1P
Cmax ([6]; 10 mg/kg, approximate conversion): ~1000 nM
Cmax ([6]; KHKi 10 mg/kg): 475 ng/mL
half-life ([6]; KHKi 10 mg/kg): 120 min
Structure (SMILES): N#Cc1c(C(F)(F)F)cc(N2CCN(CCO)CC2)nc1N1CCCC(CO)C1 (centres unmarked) [KHKi, 6-(4-(2-Hydroxyethyl)piperazin-1-yl)-2-(3-(hydroxymethyl)-piperidin-1-yl)-4-(trifluoromethyl)nicotinonitrile]
extension of blood half-life of fructose ([1]; first attempt with the KHKi): 50%
tumor fructose with KHKi ([1]; single dose of KHKi with single IP injection of fructose, tumors extracted after 1 hr): further enhanced

Structure (SMILES): Nc1cccc(S(=O)(=O)N2CCCN(S(=O)(=O)c3ccc4c(c3)OCCO4)CC2)c1 [DASA-58]
AC90 [7]: 680 nM
